Data taken from patent publication US10682388B2, “Targeting of PELP1 in cancer therapy” (THE BOARD OF REGENTS OF THE UNIVERSITY OF TEXAS SYSTEM, priority 2014, dated 2020).
Entries after “also recorded” stand apart in the source; their conditions may differ.

Experiments:
Type in all cases: cell-based, Human
[1] = system: ERE-luciferase in ZRPELP1 cells; experiment: ERE-luciferase reporter gene assay in PELP1 overexpressing cells; settings: peptide 24 hours, estradiol 12 hours, compared to control TAT, FIGS. 4B, 10
Method: (§1) FIGS. 4A-E. (FIG. 4A) ZR75vec, ZR75PELP1, MCF7vec and MCF7PELP1 cells were treated in triplicate with TAT, PIP1 or PIP1 deletions (Del1, Del2, Del3) at 10 uM every 3 days and proliferation was measured by MTT assay on day 7. (FIG. 4B) ZRPELP1 cells were transfected with ERE-luciferase and treated with TAT, PIP1, or PIP2 for 24 hours and with estradiol for 12 hours. Relative luciferase activity was measured in triplicate. (FIG. 4C) ZR75 cells were grown in 5% DCC media for 72 hours, treated with TAT or PIP1 every 3 days, and treated with estradiol 10^−7 M for 12 hours. Proliferation was measured in triplicate on day 7 by MTT assay at 595 nm. (FIG. 4D) MCF7-Letrozole resistant cells were grown in 5% DCC media for 72 hours, treated with TAT, PIP1 or PIP2 every 3 days, and letrozole or estradiol 10^−7 M for 12 hours. Proliferation was measured in triplicate on day 7 by MTT assay at 595 nm. (FIG. 4E) MCF7-Tamoxiefn resistant cells were grown in 5% DCC media for 72 hours, treated with TAT, PIP1 or PIP2 every 3 days, and tamoxifen or estradiol 10^−7 M for 12 hours. Proliferation was measured in triplicate on day 7 by MTT assay at 595 nm.
FIG. 10. ERE-luciferase assay. […]
Model cells were seeded in 6-well plates. […] Luciferase activity was measured by using the luciferase assay system (Promega, Madison, Wis.).

ZR75 cells = experiment: TUNEL assay; settings: 10 μM, 24 hours, FIG. 5D
Method: FIGS. 5A-D. (FIG. 5A) ZR75vec, ZR75PELP1, MCF7vec and MCF7PELP1 cells were plated in the top of a Boyden chamber transwell, treated with TAT, PIP1 or PIP2 (10 μM) and absorbance was measured at 12 hours in triplicate. (FIG. 5B) MCF7vec, MCFP7ELP1, ZR75vec and ZR75PELP1 cells were treated in triplicate with TAT, PIP1 or PIP2 (10 μM) every 3 days, fixed with methanol on day 10 and stained with crystal violet. Average colonies per well are shown. (FIG. 5C) ZR75vec and ZR75PELP1 cells were plated in triplicate in agar with 8% RPMI with TAT, PIP1 or PIP2 (10 μM). Colonies were counted on day 14, representative images are shown on right. (FIG. 5D) ZR75 cells were plated on coverslips in triplicate and treated with TAT or PIP1 (10 μM) for 24 hours. Cells were fixed with paraformaldehyde and labeled with TUNEL and DAPI, representative images are shown on right.
ZR75 and ZR75PELP1 cells were plated on coverslips in 8% RPMI and treated with peptide for 24 hours. Cells were labeled with in situ Cell Death Detection Kit (Roche) according to manufacturer's protocol, imaged by fluorescent microscopy and quantified.

[2] = system: MCF7-TamR and MCF7-LTLT cells; experiment: Therapy resistance assays, MTT; settings: FIGS. 4D-E, 11
Method: as §1
FIG. 11. Cell proliferation assay: letrozole-resistant MCF-7-LTLT cells and Tamoxifen resistant MCF7-Tam cells were treated with TAT, PIP1, or PIP2 (10 μM)+/− letrozole or Tamoxifen.
Tamoxifen (Tam) therapy resistant MCF7-TamR and letrozole resistant MCF7-LTLT cells were cultured in tamoxifen or letrozole (10^-7M) containing media in the presence or absence of peptides and proliferation was measured by MTT assay (Sigma) following manufacturer's instructions.

ZRPELP1 cells = experiment: Initial screen, proliferation assay of PELP1-overexpressing breast cancer cells; settings: FIG. 1B
Method: FIGS. 1A-D. (FIG. 1A) Diagram for yeast two hybrid screen to identify PELP1 binding peptides. Four regions of PELP1 were tagged with the binding domain and a library of 10^6 random peptides (Clontech) were bound to an activation domain. The number of positive colonies per region of PELP1 are shown in the graph. (FIG. 1B) A proliferation assay was performed with […]1 cells plated in a 96 well plate, treated with peptide every 3 days and absorbance was measured at 7 days. (FIG. 1C) ZR75 were plated in a 6-well plate on coverslips in 8% RPMI and treated with 10 uM FITC labeled peptide for 30, 60, or 120 minutes. They were then fixed with pararformaldehyde, stained for PELP1 (red) and DAPI (blue), and imaged by confocal microscopy to monitor intracellular delivery. (FIG. 1D) ZR75 cells were starved of estrogen for 72 hours and treated with estradiol 10^-7 M for 12 hours. Nuclear lysate was incubated with biotin-tagged peptides bound to avidin beads for one hour. Beads were washed, run on SDS-PAGE gel and probed for PELP1 expression. Input of nuclear lysate is shown as control. Cell proliferation rates were measured by using MTT Cell Viability Assay in 96-well plates. Model cells were seeded in 96-well plates (1×10^3 cells/well) in DMEM or RPMI medium containing 10% serum. After an overnight incubation, cells were treated with varying concentrations of the peptides for 3-7 days and growth inhibition was determined by using traditional MTT assay (Sigma) following manufacturer's instructions.

[3] = system: ZR75, ZR75PELP1, MCF7 and MCF7PELP1 cells; experiment: MTT proliferation assay, breast cancer cells with and without PELP1 overexpression; settings: 10 μM every 3 days, day 7, FIG. 4A
Method: as §1, with “(FIG. 4E) MCF7-Tamoxiefn resistant cells were grown in 5% DCC media for 72 hours, treated with TAT, PIP1 or PIP2 every 3 days, and tamoxifen or estradiol 10^−7 M for 12 hours.” left out
Cell proliferation rates were measured by using MTT Cell Viability Assay in 96-well plates. […] After an overnight incubation, cells were treated with varying concentrations of the peptides for 3-7 days and growth inhibition was determined by using traditional MTT assay (Sigma) following manufacturer's instructions.

Sequence: GRKKRRQRRRGGMVEFRWSCPGRRKAKA [PIP1]
- ERE activation (ERE-luciferase) [1]: significantly decreased ERE activation
- apoptosis by TUNEL assay (ZR75 cells): induces apoptosis
- proliferation of therapy resistant cell lines ([2]; MCF7-TamR and MCF7-LTLT, 10 μM): inhibited the proliferation; also recorded: efficiently reduce the growth of therapy resistant cells
- combined effect on proliferation with hormonal therapy (tamoxifen, letrozole) ([2]; therapy resistant cells): synergistic inhibition of proliferation with tamoxifen
- efficiency at inhibiting proliferation, PIP1 compared with PIP2 (ZRPELP1 cells): more efficient at inhibiting proliferation than PIP2
- PELP1-mediated breast cancer cell proliferation (ZRPELP1 cells; peptide every 3 days, absorbance at 7 days): significantly inhibit PELP1-mediated proliferation
- proliferation by MTT assay [3]: significant decrease
